Laboratory results taken from publication PMC10162847 (Phytomedicine, 2023).

Tested on: SARS-CoV-2 RBD^WT and mutant proteins on HEK293-hACE2-EGFP cells
Type: cell-based, human

O=c1c(O)c(-c2cc(O)c(O)c(O)c2)oc2cc(O)cc(O)c12 [myricetin, 3,5,7-trihydroxy-2-(3,4,5-tri hydroxyphenyl)-4-benzopyrone]
binding of SARS-CoV-2 S protein to HEK293-hACE2-EGFP cell membranes: blocked
